Activity calls are given as the source filed them.
What was measured:
[1] = NIH-3T3 fibroblast cytotoxicity, dose response, cytotoxicity control, cell-based, fluorescence, Alamar Blue, secondary assay (AID 2327); type: functional;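 note: NIH-3T3 mouse fibroblasts cultured with fluconazole at 8 µg/mL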
[2] = microbe, parasite or virus in culture; type: functional; settings: Mycobacterium tuberculosis
[3] = molecular target: T1, Bcl-2-related protein A1 (Mus musculus, UniProt Q07440); type: functional;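 note: confirmatory dose–response counterscreen on Bfl-1, used to check hits from a UBC13 polyubiquitin inhibitor campaign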
T1 sequence (Q07440 whole entry): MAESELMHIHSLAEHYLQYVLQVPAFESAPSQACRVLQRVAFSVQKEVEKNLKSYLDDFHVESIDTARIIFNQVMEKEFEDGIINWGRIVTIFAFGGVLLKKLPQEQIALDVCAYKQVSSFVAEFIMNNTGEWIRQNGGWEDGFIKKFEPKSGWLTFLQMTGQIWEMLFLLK

[4] = system: HEK293; test: HEK cell cytotoxicity by LDH release, dose response, cytotoxicity control for IDE activator project, fluorescence, HEK cells (AID 588440); type: functional, cell-based; settings: Homo sapiens;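 note: cytotoxicity by LDH release measuring loss of membrane integrity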
[5] = molecular target: T2, Insulin-degrading enzyme (Homo sapiens, UniProt P14735); test: activators of endogenous IDE in HEK cells, dose response, cell-based, fluorescence polarization (AID 588439); type: functional
T2 sequence (P14735 whole entry): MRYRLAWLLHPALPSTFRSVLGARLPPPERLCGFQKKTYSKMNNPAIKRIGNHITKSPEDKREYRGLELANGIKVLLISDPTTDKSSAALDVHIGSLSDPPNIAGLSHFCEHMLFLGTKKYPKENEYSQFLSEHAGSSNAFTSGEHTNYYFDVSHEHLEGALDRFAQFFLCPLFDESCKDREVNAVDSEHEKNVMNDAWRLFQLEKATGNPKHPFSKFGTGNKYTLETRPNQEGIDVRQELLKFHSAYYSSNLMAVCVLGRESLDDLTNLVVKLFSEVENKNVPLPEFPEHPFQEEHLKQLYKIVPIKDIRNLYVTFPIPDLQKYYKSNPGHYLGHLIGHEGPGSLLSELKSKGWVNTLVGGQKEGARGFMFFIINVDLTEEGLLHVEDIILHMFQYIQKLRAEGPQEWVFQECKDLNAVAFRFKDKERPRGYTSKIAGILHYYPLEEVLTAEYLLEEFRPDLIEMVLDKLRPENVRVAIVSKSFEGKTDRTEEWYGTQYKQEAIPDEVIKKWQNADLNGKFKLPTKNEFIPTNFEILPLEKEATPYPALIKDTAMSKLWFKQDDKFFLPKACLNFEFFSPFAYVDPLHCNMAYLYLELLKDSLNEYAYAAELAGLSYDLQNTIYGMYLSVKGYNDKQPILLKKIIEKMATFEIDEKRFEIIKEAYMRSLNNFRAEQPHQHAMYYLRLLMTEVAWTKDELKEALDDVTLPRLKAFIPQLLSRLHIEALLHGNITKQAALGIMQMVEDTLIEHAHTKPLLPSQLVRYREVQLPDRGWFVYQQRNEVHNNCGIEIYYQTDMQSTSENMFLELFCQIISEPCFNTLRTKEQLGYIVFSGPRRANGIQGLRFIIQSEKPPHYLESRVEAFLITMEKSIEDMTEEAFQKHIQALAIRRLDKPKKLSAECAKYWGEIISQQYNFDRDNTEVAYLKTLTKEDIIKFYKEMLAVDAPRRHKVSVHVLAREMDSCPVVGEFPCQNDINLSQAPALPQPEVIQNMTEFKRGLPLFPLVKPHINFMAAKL

[6] = molecular target: T3, Apoptotic protease-activating factor 1 (Homo sapiens, UniProt O14727); type: functional
T3 sequence (O14727 whole entry): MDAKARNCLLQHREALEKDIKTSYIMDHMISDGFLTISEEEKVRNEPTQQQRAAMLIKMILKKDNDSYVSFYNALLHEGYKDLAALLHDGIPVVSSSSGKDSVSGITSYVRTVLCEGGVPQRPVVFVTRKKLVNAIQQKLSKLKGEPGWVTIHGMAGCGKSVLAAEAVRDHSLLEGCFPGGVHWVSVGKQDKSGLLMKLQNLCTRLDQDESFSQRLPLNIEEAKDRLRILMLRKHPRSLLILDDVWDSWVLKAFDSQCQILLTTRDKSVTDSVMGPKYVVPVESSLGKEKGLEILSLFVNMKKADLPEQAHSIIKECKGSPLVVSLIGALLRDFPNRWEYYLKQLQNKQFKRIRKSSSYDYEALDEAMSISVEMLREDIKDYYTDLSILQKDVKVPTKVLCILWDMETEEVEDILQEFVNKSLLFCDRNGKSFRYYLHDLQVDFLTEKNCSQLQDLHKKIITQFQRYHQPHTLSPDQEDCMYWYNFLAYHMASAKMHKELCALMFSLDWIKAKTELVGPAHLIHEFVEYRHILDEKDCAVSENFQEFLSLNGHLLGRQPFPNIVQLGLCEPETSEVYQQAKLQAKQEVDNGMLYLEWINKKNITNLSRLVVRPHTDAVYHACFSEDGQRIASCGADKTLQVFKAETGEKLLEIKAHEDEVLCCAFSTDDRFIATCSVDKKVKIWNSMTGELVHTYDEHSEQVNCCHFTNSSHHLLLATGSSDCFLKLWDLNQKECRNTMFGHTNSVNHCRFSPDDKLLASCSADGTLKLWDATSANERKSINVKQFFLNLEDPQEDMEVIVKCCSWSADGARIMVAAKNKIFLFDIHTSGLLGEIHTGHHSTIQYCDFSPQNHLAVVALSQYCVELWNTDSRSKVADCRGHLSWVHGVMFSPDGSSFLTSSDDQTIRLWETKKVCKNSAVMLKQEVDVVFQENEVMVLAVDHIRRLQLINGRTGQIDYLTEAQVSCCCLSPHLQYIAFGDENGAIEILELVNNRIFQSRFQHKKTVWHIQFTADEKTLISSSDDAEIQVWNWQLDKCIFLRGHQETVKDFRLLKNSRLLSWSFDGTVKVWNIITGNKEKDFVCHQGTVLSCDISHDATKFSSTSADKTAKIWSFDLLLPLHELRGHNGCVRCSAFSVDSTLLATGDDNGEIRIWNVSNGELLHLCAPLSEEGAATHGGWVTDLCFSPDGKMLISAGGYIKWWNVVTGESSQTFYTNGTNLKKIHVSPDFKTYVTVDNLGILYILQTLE

[7] = C. albicans growth with fluconazole, confirmation, fluorescence, retest (AID 2467); type: functional, cell-based
[8] = molecular target: T4, Ubiquitin-conjugating enzyme E2 N (Homo sapiens, UniProt P61088); type: functional
T4 sequence (P61088 whole entry): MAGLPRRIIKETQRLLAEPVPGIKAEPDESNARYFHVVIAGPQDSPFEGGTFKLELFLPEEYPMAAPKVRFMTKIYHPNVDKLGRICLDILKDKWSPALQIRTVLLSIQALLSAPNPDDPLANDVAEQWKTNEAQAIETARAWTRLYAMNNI

[9] = molecular target: T4, Ubiquitin-conjugating enzyme E2 N; type: functional; remark: listed apart in the source
[10] = molecular target: T2, Insulin-degrading enzyme; test: activators of recombinant IDE enzyme, dose response, counter-screen for IDE activator project, biochemical, fluorescence polarization (AID 588681)
[11] = system: HEK293; test: optical interference in Abeta FP readout, dose response, artefact control for IDE activator project, biochemical, fluorescence polarization (AID 588442); type: functional, cell-based; settings: Homo sapiens
[12] = molecular target: Ras and Rab interactor 1/Tyrosine-protein kinase ABL1 (Homo sapiens, UniProt P00519+Q13671); type: functional;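 note: biochemical TR-FRET dose-response test measuring inhibition of binding between Rin1 and Abl proteins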
Sequence of Ras and Rab interactor 1/Tyrosine-protein kinase ABL1 (P00519 whole entry): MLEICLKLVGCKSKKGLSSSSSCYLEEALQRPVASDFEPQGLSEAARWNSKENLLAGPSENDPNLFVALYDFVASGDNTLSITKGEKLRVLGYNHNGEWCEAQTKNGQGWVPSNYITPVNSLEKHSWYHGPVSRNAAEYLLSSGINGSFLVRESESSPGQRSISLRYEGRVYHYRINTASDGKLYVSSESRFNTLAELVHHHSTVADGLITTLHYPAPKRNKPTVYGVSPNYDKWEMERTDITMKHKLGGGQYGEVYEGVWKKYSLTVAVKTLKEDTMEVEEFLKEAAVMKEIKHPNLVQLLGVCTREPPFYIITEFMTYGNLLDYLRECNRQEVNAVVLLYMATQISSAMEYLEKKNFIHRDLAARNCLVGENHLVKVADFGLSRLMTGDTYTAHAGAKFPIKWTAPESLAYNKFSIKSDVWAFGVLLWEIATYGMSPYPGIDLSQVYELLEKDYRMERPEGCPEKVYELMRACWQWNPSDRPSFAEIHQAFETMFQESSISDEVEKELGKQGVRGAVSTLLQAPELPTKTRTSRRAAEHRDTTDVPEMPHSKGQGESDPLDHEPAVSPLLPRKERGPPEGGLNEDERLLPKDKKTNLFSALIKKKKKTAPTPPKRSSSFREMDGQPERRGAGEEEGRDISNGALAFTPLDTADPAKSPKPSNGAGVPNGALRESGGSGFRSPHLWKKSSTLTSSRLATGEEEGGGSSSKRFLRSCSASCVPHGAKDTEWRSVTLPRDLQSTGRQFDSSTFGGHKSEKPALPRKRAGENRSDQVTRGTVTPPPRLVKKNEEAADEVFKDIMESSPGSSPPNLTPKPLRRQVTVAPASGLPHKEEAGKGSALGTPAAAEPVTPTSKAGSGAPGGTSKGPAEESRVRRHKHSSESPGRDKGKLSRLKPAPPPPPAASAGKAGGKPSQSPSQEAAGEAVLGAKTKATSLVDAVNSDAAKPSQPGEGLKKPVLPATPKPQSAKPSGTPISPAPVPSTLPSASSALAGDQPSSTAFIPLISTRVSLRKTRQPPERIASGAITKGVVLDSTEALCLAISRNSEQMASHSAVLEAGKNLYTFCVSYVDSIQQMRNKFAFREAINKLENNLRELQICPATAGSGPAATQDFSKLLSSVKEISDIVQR
Sequence of Ras and Rab interactor 1/Tyrosine-protein kinase ABL1 (Q13671 whole entry): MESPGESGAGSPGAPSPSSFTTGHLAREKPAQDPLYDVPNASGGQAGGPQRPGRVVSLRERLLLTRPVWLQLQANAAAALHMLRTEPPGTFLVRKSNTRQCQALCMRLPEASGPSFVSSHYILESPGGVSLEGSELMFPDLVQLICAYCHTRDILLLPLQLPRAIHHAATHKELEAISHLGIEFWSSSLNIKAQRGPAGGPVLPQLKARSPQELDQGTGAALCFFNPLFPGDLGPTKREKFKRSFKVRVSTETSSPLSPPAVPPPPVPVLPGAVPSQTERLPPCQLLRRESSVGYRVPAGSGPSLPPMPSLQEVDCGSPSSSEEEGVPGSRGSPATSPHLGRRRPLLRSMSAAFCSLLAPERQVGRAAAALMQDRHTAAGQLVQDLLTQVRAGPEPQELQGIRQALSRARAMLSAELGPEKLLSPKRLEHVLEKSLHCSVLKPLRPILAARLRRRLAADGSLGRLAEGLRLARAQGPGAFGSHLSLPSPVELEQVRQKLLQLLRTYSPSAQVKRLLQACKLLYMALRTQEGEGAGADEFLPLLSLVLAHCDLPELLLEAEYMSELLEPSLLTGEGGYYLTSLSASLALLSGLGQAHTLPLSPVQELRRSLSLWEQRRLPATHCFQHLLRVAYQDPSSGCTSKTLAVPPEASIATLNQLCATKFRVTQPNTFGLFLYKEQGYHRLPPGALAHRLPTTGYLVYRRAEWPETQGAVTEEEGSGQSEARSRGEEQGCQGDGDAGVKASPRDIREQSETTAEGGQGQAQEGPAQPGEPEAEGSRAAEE

[13] = system: INS1; test: beta cell apoptosis inhibitors, cytokine rescue, dose response, luminescence, retest (AID 449756); type: functional, cell-based; settings: Rattus norvegicus;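 note: cell death triggered by IL-1 beta plus TNF-alpha plus IFN-gamma mixture; protective hits raise ATP signal compared with cytokine alone wells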
[14] = Luminescence Cell-Based Dose Confirmation HTS to Identify Activators of 5'UTR Stem-Loop Driven Alpha-Synuclein mRNA Translation in H4 Neuroglioblastoma Cells. [Related pubchem assays: 1829 (Project Summary), 1814 (Primary HTS)]; type: functional
[15] = Luminescence Cell-Based Dose Response HTS to Identify Activators of Luciferase Translation or Activity in H4 […] Cells. [Related pubchem assays: 1829 (Project Summary), 1814 (Primary HTS)]; type: functional
[16] = system: H4; test: Luminescence Cell-Based Dose Response HTS to Identify Activators of 5'UTR Stem-Loop Driven Prion Protein mRNA Translation in H4 Neuroglioblastoma Cells. [Related pubchem assays: 1829 (Project Summary), 1814 (Primary HTS)]; type: functional; settings: Homo sapiens
[17] = molecular target: T5, RNA-binding protein pos-1 (Caenorhabditis elegans, UniProt G5EF15); test: inhibitors of POS-1/mex-3 RNA binding, dose response, biochemical, fluorescence polarization (AID 1964);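 note: purified POS-1 fused to maltose binding protein made in E. coli; potency of compounds blocking POS-1 binding to fluorescent RNA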
T5 sequence (G5EF15 whole entry): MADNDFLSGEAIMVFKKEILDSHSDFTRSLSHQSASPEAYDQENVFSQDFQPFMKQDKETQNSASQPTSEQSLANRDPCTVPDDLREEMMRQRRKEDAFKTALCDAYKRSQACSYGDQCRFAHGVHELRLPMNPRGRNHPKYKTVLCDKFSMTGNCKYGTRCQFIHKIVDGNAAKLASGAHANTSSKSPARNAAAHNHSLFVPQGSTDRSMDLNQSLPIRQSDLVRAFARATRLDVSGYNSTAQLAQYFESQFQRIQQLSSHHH

[18] = molecular target: T6, Zinc finger protein mex-5 (Caenorhabditis elegans, UniProt Q9XUB2); test: MEX-5/TCR-2 RNA interaction inhibitors, dose response, biochemical, C. elegans, fluorescence polarization (AID 1960)
T6 sequence (Q9XUB2 whole entry): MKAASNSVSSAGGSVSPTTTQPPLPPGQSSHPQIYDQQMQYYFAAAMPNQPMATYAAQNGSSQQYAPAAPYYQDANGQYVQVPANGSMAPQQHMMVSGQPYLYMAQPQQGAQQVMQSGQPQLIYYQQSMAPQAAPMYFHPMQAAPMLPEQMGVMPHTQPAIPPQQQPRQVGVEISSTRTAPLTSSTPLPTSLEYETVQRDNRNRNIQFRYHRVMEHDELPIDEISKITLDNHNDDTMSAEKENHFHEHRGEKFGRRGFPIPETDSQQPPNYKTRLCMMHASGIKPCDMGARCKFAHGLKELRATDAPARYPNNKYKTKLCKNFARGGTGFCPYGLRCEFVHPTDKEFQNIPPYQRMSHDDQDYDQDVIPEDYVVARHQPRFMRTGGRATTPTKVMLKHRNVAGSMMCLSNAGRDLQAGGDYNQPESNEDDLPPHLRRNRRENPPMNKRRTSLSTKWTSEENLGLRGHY

[19] = molecular target: Melanin-concentrating hormone receptor 1 (Homo sapiens, UniProt Q99705); test: Late-stage fluorescence-based counterscreen for antagonists of the G-protein coupled receptor 7 (GPR7): cell-based dose response assay to identify antagonists of the melanin-concentrating hormone receptor 1 (MCHR1) Set 5.; type: functional
Sequence of Melanin-concentrating hormone receptor 1 (Q99705 whole entry): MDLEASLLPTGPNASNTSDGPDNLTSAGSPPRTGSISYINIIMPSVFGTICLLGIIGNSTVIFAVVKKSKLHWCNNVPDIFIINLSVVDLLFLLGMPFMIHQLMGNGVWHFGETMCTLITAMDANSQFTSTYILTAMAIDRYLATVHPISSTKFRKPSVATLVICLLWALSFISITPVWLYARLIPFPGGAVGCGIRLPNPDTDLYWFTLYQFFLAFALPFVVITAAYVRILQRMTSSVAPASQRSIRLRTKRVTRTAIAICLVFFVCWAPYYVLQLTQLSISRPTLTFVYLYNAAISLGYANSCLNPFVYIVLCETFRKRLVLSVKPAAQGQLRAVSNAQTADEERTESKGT

[20] = molecular target: T7, Neuropeptides B/W receptor type 1 (Homo sapiens, UniProt P48145); test: GPR7 antagonist potency, late-stage follow-up, cell-based, fluorescence, dose response, set 5 (AID 588566); type: functional
T7 sequence (P48145 whole entry): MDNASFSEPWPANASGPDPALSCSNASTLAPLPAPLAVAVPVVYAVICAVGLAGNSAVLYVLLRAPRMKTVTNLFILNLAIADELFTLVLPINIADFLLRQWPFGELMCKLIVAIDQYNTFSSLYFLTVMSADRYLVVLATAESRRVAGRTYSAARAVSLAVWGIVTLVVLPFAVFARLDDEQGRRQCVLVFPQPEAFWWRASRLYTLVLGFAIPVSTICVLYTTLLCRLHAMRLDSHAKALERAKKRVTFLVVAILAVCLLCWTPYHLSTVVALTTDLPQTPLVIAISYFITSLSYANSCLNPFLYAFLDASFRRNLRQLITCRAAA

[21] = molecular target: Activin receptor type-1 (Homo sapiens, UniProt Q04771); test: Navigating the Kinome. Panel member name: ACVR1; type: functional
Sequence of Activin receptor type-1 (Q04771 whole entry): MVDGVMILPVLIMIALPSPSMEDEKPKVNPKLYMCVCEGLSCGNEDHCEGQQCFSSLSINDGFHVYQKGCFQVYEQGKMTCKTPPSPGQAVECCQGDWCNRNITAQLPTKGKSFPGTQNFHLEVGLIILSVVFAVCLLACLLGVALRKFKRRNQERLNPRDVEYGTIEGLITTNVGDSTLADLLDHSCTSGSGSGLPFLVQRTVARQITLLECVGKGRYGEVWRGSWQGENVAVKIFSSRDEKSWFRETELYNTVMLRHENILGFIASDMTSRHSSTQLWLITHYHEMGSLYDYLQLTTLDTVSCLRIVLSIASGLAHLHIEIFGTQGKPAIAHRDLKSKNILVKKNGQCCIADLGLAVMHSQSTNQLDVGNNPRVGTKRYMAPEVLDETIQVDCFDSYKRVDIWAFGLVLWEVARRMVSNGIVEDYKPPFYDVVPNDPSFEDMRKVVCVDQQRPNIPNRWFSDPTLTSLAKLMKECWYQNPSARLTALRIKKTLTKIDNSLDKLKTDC

NC1=NC[C@H](CC2CCCCC2)N1CCc1cc(C(F)(F)F)cc(C(F)(F)F)c1
active: EC50 [1] 65.2 µM | CC50 [2] 26 µM | EC50 [5] 9.93 µM | IC50 [6] 74.7 µM | EC50 [7] 7.64 µM | IC50 [8] 14.6 µM | IC50 [9] 17.2 µM
inactive: IC50 [3] > 20 µM | IC50 [4] 10.9 µM | EC50 [10] > 54.7 µM | EC50 [11] > 54.7 µM

CC1(C)Cc2nc3sc4c(=O)[nH]cnc4c3cc2CS1
active: IC50 [12] > 0.302 µM

Cc1ccc(NNC2=C3N=NN=C3C=CC2=O)cc1
inactive: IC50 [4] > 89.3 µM
active: AC50 [13] 5.05 µM | EC50 [14] 0.399 µM | EC50 [15] 50.3 µM | EC50 [5] 0.891 µM | EC50 [17] 22.4 µM | EC50 [10] 1.32 µM | EC50 [18] 2.99 µM | EC50 [11] 0.659 µM
> 120 µM (not active): EC50 [16]

CCOC(=O)C(C#N)c1c(Cl)cnn(C2c3ccccc3-c3ccccc32)c1=O (configuration not stated)
active: IC50 [19] 7.86 µM | IC50 [20] 2.9 µM

O=C(C1CCCCN1C1c2ccccc2CCc2ccccc21)N1CCN(c2ccc([N+](=O)[O-])cc2)CC1 (configuration not stated)
inactive: IC50 [19] > 20 µM | IC50 [20] > 20 µM

C=CCn1c(=O)c2cnc(Nc3ccc(N4CCN(C)CC4)cc3)nc2n1-c1cccc(C(C)(C)O)n1 [ADAVOSERTIB]
inactive: Ki [21] > 3.98 µM
